{"source": "patent US7842316B2", "about": "“Cosmetic compositions having extracts of Amomum melegueta and methods of treating skin” (Avon Products, Inc., priority 2007, dated 2010)", "target": "T1, COX-2 (Ovis aries, UniProt P79208)", "T1 sequence (P79208 17-603)": "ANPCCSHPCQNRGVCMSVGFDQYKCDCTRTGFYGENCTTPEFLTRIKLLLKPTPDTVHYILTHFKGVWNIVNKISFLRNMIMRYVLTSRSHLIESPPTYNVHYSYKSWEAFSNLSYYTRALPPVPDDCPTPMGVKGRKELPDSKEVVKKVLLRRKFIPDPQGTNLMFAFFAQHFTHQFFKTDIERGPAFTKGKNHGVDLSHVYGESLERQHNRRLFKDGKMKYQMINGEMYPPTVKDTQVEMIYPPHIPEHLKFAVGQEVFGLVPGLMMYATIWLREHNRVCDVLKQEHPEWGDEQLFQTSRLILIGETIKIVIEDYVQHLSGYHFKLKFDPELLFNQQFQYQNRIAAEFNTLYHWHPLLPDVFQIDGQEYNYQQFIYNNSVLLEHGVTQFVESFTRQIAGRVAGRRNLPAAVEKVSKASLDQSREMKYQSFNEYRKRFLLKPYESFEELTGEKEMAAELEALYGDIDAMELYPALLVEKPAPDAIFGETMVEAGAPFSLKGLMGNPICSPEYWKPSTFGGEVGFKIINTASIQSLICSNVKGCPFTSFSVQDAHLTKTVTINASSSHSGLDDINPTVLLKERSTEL", "assay": "colorimetric COX (ovine) inhibitor screening assay", "type": "biochemical", "conditions": "Vioxx used as positive control; concentration not given"}
{"smiles": "CS(=O)(=O)c1ccc(C2=C(c3ccccc3)C(=O)OC2)cc1", "note": "[Vioxx]", "values": [{"measurement": "level of inhibition (COX-2 inhibitory activity), positive control", "result": 90, "unit": "%"}]}
